Patent publication US6897237B2, “MMP-12 inhibitors” (Shionogi & Co. Ltd., priority 2000, dated 2005)

Assays:
[1] = biological target: T1, MMP-1 (Homo sapiens, UniProt P03956); assay: Assay for inhibitory activities on MMPs (fluorogenic peptide substrate): MMP-1; type: biochemical; conditions: substrate MOCAc-Pro-Leu-Gly-Leu-A2Pr(DNP)-Ala-Arg-NH2
T1 construct: purchased Yagai
T1 sequence (P03956 100-469): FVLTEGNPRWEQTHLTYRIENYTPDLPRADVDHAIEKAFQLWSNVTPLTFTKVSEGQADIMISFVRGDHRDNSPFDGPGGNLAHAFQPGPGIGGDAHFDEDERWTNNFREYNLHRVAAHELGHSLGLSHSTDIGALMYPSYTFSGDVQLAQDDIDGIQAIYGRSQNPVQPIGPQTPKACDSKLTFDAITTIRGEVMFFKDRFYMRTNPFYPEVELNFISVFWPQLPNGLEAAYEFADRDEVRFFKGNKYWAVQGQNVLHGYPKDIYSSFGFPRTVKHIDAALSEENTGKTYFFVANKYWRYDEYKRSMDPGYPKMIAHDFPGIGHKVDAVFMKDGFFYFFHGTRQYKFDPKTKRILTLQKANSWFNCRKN
Protocol: MMP-1 was purchased from Yagai.
(§1) The enzymatic activity on MMPs was analyzed by the method described in “C. Graham Knight, Frances Willenbrock and Gillian Murphy: A novel coumarin-labelled peptide for sensitive continuous assays of the matrix metalloproteinases: FEBS LETT., 296, (1992), 263-266”. The substrate: MOCAc-Pro-Leu-Gly-Leu-A2Pr(DNP)-Ala-Arg-NH2 was purchased from Peptide Institute, Inc., Osaka, Japan. The measurement of the inhibitory activities (IC50) was carried out by the following four methods;
(§2) (A) Reaction with substrate, enzyme (MMPs) and inhibitor
(§3) (B) Reaction with substrate and inhibitor, without enzyme
(§4) (C) Reaction with substrate and enzyme (MMPs), without inhibitor
(§5) (D) Reaction with substrate only
(§6) IC50 values were calculated by using the following formula and each fluorescence values of above four methods (A to D).
(§7) % inhibition={1−(A−B)/(C−D)}×100
(§8) IC50 means the concentration required to inhibit 50% of the enzyme activity.

[2] = biological target: T2, MMP-2 (Homo sapiens, UniProt P08253); assay: Assay for inhibitory activities on MMPs (fluorogenic peptide substrate): MMP-2; type: biochemical; conditions: substrate MOCAc-Pro-Leu-Gly-Leu-A2Pr(DNP)-Ala-Arg-NH2
T2 construct: purchased Calbiochem-Novabiochem International, Inc
T2 sequence (P08253 110-660): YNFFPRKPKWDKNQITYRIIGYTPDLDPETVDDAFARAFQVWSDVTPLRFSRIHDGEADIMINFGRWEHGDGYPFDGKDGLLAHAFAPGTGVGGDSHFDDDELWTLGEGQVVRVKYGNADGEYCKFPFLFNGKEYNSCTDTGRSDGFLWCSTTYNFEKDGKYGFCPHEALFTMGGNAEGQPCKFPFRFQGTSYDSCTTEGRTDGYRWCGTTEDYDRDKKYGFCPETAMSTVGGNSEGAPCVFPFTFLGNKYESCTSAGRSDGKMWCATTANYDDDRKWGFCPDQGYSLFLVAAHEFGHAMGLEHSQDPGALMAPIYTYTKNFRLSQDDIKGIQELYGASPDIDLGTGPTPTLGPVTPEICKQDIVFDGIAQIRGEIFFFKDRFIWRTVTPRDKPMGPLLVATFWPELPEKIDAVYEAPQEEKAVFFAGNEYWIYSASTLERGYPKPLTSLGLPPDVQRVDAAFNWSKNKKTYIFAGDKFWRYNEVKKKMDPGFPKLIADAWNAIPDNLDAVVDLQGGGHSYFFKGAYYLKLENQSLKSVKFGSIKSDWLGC
Protocol: MMP-2 was purchased from Calbiochem-Novabiochem International, Inc.
as §1, §2, §3, §4, §5, §6, §7, §8

[3] = biological target: T3, MMP-8 catalytic domain (Homo sapiens, UniProt P22894); assay: Assay for inhibitory activities on MMPs (fluorogenic peptide substrate): MMP-8; type: biochemical; conditions: substrate MOCAc-Pro-Leu-Gly-Leu-A2Pr(DNP)-Ala-Arg-NH2
T3 construct: catalytic domain (^99Phe˜^262Gly); His-tag; enterokinase digestion-site; made in house; host or cells: Escherichia coli
T3 sequence (P22894 99-262): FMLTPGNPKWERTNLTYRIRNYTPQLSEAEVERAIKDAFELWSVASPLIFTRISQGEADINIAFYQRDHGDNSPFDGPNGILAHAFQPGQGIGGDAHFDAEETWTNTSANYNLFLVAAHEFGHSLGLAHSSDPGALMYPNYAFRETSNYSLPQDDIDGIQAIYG
Excerpt: In regard to MMP-8, catalytic domain (^99Phe˜^262Gly) was amplified with PCR using commercial available Human Bone Marrow cDNA. This was cloned in Escherichia. coli expression vector pTrc99AHE inserted with His-tag sequence and enterokinase digestion-site, induced and expressed by IPTG (Isopropyl-β-D-thiogalactopyranoside) and expressed in a insoluble fraction (Than F. Ho, M. Walid Qoronfleh, Robert C. Wahl, Trica A. Pulvino, Karen J. Vavra, Joe Falvo, Tracey M. Banks, Patricia G. Brake and Richard B. Ciccarelli: Gene expression, purification and characterization of recombinant human neutrophil collagenase. Gene 146, (1994) 297-301, Prepared by the a improved method of this material). Isolation of MMP-8 from insoluble fraction was carried out by dissolving in modifier (6M urea) by a usual method and purification with metal chelate chromatography. And then removing modifier (6M urea) with dialysis and refolding of the enzyme spontaneously gave activated MMP-8.
as §1, §2, §3, §4, §5, §6, §7, §8

[4] = biological target: T4, MMP-9 (Homo sapiens, UniProt P14780); assay: Assay for inhibitory activities on MMPs (fluorogenic peptide substrate): MMP-9; type: biochemical; conditions: substrate MOCAc-Pro-Leu-Gly-Leu-A2Pr(DNP)-Ala-Arg-NH2
T4 construct: endogenous in cells; host or cells: HT1080 human fibrosarcoma cells, TPA-stimulated; purified in house from conditioned medium
T4 sequence (P14780 107-707 limits assumed): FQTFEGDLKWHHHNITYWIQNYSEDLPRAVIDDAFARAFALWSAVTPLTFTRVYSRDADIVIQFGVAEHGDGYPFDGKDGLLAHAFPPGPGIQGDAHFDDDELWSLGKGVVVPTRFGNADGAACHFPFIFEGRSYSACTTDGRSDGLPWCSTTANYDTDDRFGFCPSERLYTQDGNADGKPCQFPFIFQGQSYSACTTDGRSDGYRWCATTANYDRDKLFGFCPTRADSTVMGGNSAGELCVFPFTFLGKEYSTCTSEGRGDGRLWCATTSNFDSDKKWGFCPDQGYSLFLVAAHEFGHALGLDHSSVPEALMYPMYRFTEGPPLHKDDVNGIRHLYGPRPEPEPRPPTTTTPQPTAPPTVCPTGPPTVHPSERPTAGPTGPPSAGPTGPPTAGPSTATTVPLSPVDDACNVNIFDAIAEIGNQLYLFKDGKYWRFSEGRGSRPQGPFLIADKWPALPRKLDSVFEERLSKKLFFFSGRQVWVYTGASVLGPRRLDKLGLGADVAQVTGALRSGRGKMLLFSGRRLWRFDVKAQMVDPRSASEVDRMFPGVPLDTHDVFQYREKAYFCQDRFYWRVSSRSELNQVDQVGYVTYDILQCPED
Excerpt: MMP-9 was isolated and purified by using a combination of procedures described in previous reports as follows. Yasunori Okada, Yukio Gonoji, Katsumi Naka, Katsuro Tomita, Isao Nakanishi, Kazushi Iwata, Kyoko Yamashita, and Taro Hayakawa: Matrix metalloproteinase 9 (92-kDa gelatinase/type IV collagenase) from HT1080 human fibrosarcoma cells. Purification and activation of the precursor and enzymic properties. J. Biol. Chem., 267 (1.992) 21712-21719. Yasunori Okada, Tatsuhisa Morodomi, Jan J, Enghild, Ko Suzuki, Atsushi Yasui, Isao Nakanishi, Guy Salvesen and Hideaki Nagase: Matrix metalloproteinase 2 from human rheumatoid synovial fibroblasts. Purification and activation of the precursor and enzymic properties. Eur. J. Biochem. 194 (1990) 721-730. Robin V Ward, Rosalind M Hembry, John J Reynolds and Gillian Murphy: The purification of tissue inhibitor of metalloproteinase-2 from its 72 kDa progelatinase complex. Biochem. J. 278 (1991) 179-187.
Briefly, human fibrosarcoma ATCC HT1080 cell line was cultured to confluent in Dulbecco's Modified Medium (DMEM) containing 10% fetal-calf serum at 37° C. for 48 hours. Subsequently, the medium of confluent culture was changed to serum-free DMEM medium. To obtain MMP-9, Phorbol-12-myristate-13-acetate (TPA) must be added to this serum-free DMEM medium at a concentration of 50 ng/ml. The TPA treated medium was centrifuged at 3000 rpm for 15 min and the supernatant was concentrated to 450 ml by a Toyo-Roshi UP-20 apparatus with an ultrafiltration membrane. Then, proMMP-9 in this concentrated solution was purified by using columns of Gelatin-Sepharose and Concanavalin A-Sepharose. The pool containing proMMP-9 was dialyzed, concentrated (Toyo-Roshi UP-20) and applied to columns of Sephacryl S-200 and Green A matrix for the separation from TIMPs. The obtained proMMP-9 fraction was activated by TPCK-Trypsin (final conc. […] reaction mix.).
as §1, §2, §3, §4, §5, §6, §7, §8

[5] = biological target: T5, MMP-12 catalytic domain (Homo sapiens, UniProt P39900); assay: Assay for inhibitory activities on MMPs (fluorogenic peptide substrate): MMP-12; type: biochemical; conditions: substrate MOCAc-Pro-Leu-Gly-Leu-A2Pr(DNP)-Ala-Arg-NH2
T5 construct: catalytic domain(^100Phe˜^263Gly); His-tag; enterokinase digestion-site; made in house; host or cells: Escherichia coli
T5 sequence (P39900 100-263): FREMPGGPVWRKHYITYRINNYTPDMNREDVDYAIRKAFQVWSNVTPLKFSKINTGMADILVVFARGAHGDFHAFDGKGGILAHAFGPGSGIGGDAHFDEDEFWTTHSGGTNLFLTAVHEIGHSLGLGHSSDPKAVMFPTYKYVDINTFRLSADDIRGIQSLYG
Protocol: (§9) In regard to MMP-12, catalytic domain(^100Phe˜^263Gly) was amplified with RT-PCR from Human Placenta Total RNA. This was cloned in Escherichia coli expression vector pTrc99AHE inserted with His-tag sequence and enterokinase digestion-site, induced and expressed by IPTG (Isopropyl-β-D-thiogalactopyranoside) and expressed in a insoluble fraction. Isolation of MMP-12 from a insoluble fraction was carried out by dissolving in modifier (6M urea) by a usual method and purification with metal chelate chromatography (Ni Chelateing Sepharose). And then removing modifier (6M urea) with dialysis and refolding of the enzyme spontaneously gave activated MMP-12.
as §1, §2, §3, §4, §5, §6, §7, §8

[6] = biological target: T6, MMP-13 catalytic domain (Homo sapiens, UniProt P45452); assay: Assay for inhibitory activities on MMPs (fluorogenic peptide substrate): MMP-13; type: biochemical; conditions: substrate MOCAc-Pro-Leu-Gly-Leu-A2Pr(DNP)-Ala-Arg-NH2
T6 construct: catalytic domain (^104Tyr˜^267Gly); His-tag; enterokinase digestion-site; made in house; host or cells: Escherichia coli
Protocol: as §9, with “MMP-13, mRNA was prepared from carcinoma cell SW1353 derived from human cartilage stimulate by IL-1, TNF and” for “MMP-12,”, “domain (^104Tyr˜^267Gly)” for “domain(^100Phe˜^263Gly)”, “RT-PCR.” for “RT-PCR from Human Placenta Total RNA.”, “MMP-1.3” for “MMP-12”, “dialyze” for “dialysis”, “MMP-13.” for “MMP-12.”
as §1, §2, §3, §4, §5, §6, §7, §8

Compound	IC50 [1]	IC50 [2]	IC50 [3]	IC50 [4]	IC50 [5]	IC50 [6]	melting point
CC(C)[C@H](NS(=O)(=O)c1ccc(C#Cc2ccc3ccccc3c2)cc1)C(=O)O [Compound A-1]	> 10 µM	400 nM	570 nM	770 nM	7.6 nM	300 nM	171 to 173 °C
O=C(O)CNS(=O)(=O)c1ccc(C#Cc2ccc3ccccc3c2)cc1 [Compound A-9]	> 10 µM	250 nM	> 10000 nM	1800 nM	69 nM	2880 nM	–
CC(C)C[C@@H](NS(=O)(=O)c1ccc(C#Cc2ccc3ccccc3c2)cc1)C(=O)O [Compound A-10]	> 10 µM	370 nM	4380 nM	1440 nM	58 nM	1550 nM	–
C[C@H](NS(=O)(=O)c1ccc(C#Cc2ccc3ccccc3c2)cc1)C(=O)O [Compound A-8]	> 10 µM	570 nM	2440 nM	3280 nM	16 nM	2770 nM	–
O=C(O)[C@@H](Cc1ccccc1)NS(=O)(=O)c1ccc(C#Cc2ccc3ccccc3c2)cc1 [Compound A-2]	> 10 µM	> 10000 nM	> 10000 nM	> 10000 nM	16 nM	> 10000 nM	–

More lines, now with the values ahead:

IC50 [1]	IC50 [2]	IC50 [3]	IC50 [4]	IC50 [5]	IC50 [6]	melting point	Compound
> 10 µM	370 nM	3630 nM	1790 nM	35 nM	1140 nM	–	O=C(O)[C@H](NS(=O)(=O)c1ccc(C#Cc2ccc3ccccc3c2)cc1)c1ccc(O)cc1 [Compound A-12]
> 10 µM	13 nM	10 nM	300 nM	7.9 nM	37 nM	–	O=C(O)[C@H](Cc1ccccc1)NS(=O)(=O)c1ccc(C#Cc2ccc3c(c2)OCO3)cc1 [Compound A-22]
> 10 µM	1250 nM	2600 nM	1100 nM	40 nM	1400 nM	–	O=C(O)C[C@@H](NS(=O)(=O)c1ccc(C#Cc2ccc3ccccc3c2)s1)C(=O)O [Compound B-12]
> 10 µM	> 10000 nM	> 10000 nM	> 10000 nM	140 nM	> 10000 nM	–	O=C(O)[C@H](Cc1ccccc1)NS(=O)(=O)c1ccc(-n2nnc(-c3ccc4ccccc4c3)n2)cc1 [Compound C-2]
